Assay [1] addresses T1, ALX/FPR2 (Homo sapiens, UniProt P25090).
T1 sequence (P25090 1-351): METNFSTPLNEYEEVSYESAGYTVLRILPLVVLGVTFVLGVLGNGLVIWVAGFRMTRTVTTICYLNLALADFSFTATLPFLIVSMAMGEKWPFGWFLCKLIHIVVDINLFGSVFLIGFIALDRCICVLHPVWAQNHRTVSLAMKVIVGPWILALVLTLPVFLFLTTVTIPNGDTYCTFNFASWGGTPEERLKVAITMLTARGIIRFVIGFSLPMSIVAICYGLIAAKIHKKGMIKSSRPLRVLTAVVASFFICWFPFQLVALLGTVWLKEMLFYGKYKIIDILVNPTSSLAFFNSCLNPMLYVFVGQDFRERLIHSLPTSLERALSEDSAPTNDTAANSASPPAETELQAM
Kind of assay: intracellular Ca2+ flux (Fluo-4) in stably double transfected FPR2+/Gαq+ HEK-293 cells; wild-type HEK-293 cells as negative control; full endogenous agonist. It is filed as cell-based.

Assay [2] addresses T1, ALX/FPR2. The experiment in a line: intracellular Ca2+ flux (Fluo-4) in stably double transfected FPR2+/Gαq+ HEK-293 cells; wild-type HEK-293 cells as negative control; partial agonist. The format is cell-based. A general note: A change in cytosolic calcium serves as a functional read-out for many receptors and channels.

The values below come from article PMC12510138, “Asymmetric Synthesis and Biological Evaluation of 1,3‐ and 1,4‐Disubstituted Isoquinoline‐Containing Lipoxin A4 Analogues” (Chemistry (Weinheim an Der Bergstrasse, Germany), 2025).

As to `CCCCC[C@H](O)/C=C/C=C\C=C\C=C\[C@@H](O)[C@@H](O)CCCC(=O)O` [compound 1, LXA4], the “intracellular Ca2+ flux (Fluo-4) in stably double transfected FPR2+/Gαq+ HEK-293” value in assay [1] is 10 nM.
In the case of `CCCCC[C@@H](O)c1nc(/C=C/[C@@H](O)[C@@H](O)CCCC(=O)OC)cc2ccccc12` [(1R)-8], in assay [2], the “intracellular Ca2+ flux (Fluo-4) in stably double transfected FPR2+/Gαq+ HEK-293” value came out at 100 nM.
